Measurements taken from US20250041624A1, “METHOD FOR ENHANCING ACTIVITY OF PHOTOSENSITIZER BY MAGNETIC FIELD” (PEKING UNIVERSITY, priority 2021, published 2025).

Assay: Reaction rate of fluorescent probe SOSG with 1O2 generated by photosensitizer under light and magnetic field
Assay type: physicochemical
Conditions: Ce6 and SOSG 10 μmol/L in water, 640 nm LED 5 mW·cm−2
Protocol: (1) The photosensitizer Rose Bengal (RB) (the purity >98%, available from Saen Chemical Technologies (Shanghai) Ltd. Co., branded as Energy Chemical) and singlet oxygen fluorescent probe (SOSG) are dissolved in water (SOSG available from ThermoFisher Scientific (China) Co., Ltd.). In the resulting solution, the photosensitizer and SOSG are both at a concentration of 10 μmol/L. In a magnetic field with certain strength, the solutions are exposed to a 561 nm LED lamp (light emitting diode) at a power of 5 mW·cm^−2 and tested for fluorescence spectra at 0, 15, 30, 45, 60, 90, 120 and 180 seconds of light exposure, respectively, resulting in emission intensity ([…]) versus time (t) curves. The above fluorescence spectroscopy test is performed at a magnetic field strength of 0, 10, 35, 85, 180, 300 mT, respectively (external magnetic field provided by a neodymium iron boron permanent magnet).
(2) The photosensitizer chlorin e6 (Ce6, Chlorin e6) (available from Saen Chemical Technologies (Shanghai) Ltd. Co., branded as Energy Chemical) and singlet oxygen fluorescent probe (SOSG) are dissolved in water, both with a concentration of 10 μmol/L in the resulting solutions. In a magnetic field with certain strength, the solutions are exposed to a 640 nm LED lamp (light emitting diode) at a power of 5 mW·cm^−2 and tested for fluorescence spectra at 0, 15, 30, 45, 60, 90, 120 and 180 seconds of light exposure, respectively, resulting in emission intensity ([…]) versus time (t) curves. The above fluorescence spectra are tested at a magnetic field strength of 0, 10, 30, 70, 150, 250 mT, respectively.
The external magnetic field is supplied by Neodymium Iron Boron Permanent Magnet. Fluorescence spectra are tested using Edinburg FLS980 Steady State Transient Fluorescence Spectrometer with a detector of PMT R928 and a light source of 450 W ozone-free xenon lamp with excitation wavelength of λex=488 nm.
Under irradiation conditions, photosensitizer is excited to produce singlet oxygen ^1O2, and fluorescent probe SOSG reacts with ^1O2 to give endoperoxide with green fluorescence emission characteristic, with emission wavelength of 525 nm under excitation wavelength conditions of 488 nm. The reaction has a reaction rate of r.
In the present invention, through application of light and a magnetic field, the magnetic field effects (MFEs) is quantified by mfeR, the change rate of the reaction rate r, mfeR=(rB−r0)/r0×100%, where r0 is the reaction rate at a magnetic field strength of 0 mT and rB is the reaction rate at a magnetic field strength of B mT. Where the reaction rate (r) is proportional to the slope of the tangent of a curve (first derivative of the curve) of the emission intensity (I525 nm) versus time (t). Under magnetic field strengths of 0, 10, 35, 85, 180, 300 mT and from the time of starting to illuminate and place in magnetic field (the time recorded as 0), the first derivative of the I525 nm−t curve is 1, 1.05, 1.09, 0.99, 1.12, 1.14 (normalized).

## chlorin e6 [Ce6]
MF 0 mT
  first derivative of I525 nm−t curve at time 0 (normalized): 1
MF 10 mT
  first derivative of I525 nm−t curve at time 0 (normalized): 1.09
MF 30 mT
  first derivative of I525 nm−t curve at time 0 (normalized): 1.33
MF 70 mT
  first derivative of I525 nm−t curve at time 0 (normalized): 1.23
MF 150 mT
  first derivative of I525 nm−t curve at time 0 (normalized): 1.16
MF 250 mT
  first derivative of I525 nm−t curve at time 0 (normalized): 1.12
